Reference: patent US5455356A, “Fungicidal 1-aryl-1-[α-(triazolyl)alkyl]-1-silacycloalkanes and their preparation methods” (priority 1993, dated 1995)

Experiments:
Format in all cases: cell-based
[1] = system: Rhizoctonia solani; assay: In vitro mycelial/spore growth on potato-sucrose-agar, percent disease control (RS, first column); details: read-out: % controlled, RS
Procedure: (§1) The compounds of this invention were dissolved respectively in acetone in an amount equal to 10% of the final volume and then in purified water at the concentration of 100 ppm and 50 ppm.
(§2) Each of the solution was mixed with potato-sucrose-agar medium in 6" petri dish and one of the fungi was spotted at the center of the dish. The dish was incubated in growth room for several days. The percent disease control was derived from the radii of spore growth. The screening tests in vitro condition are well-known to those skilled in the art.
(§3) The following fungi were used for the screening.
7) Rhi. so.; Rhizoctonia solani

[2] = system: GC; assay: In vitro mycelial/spore growth on potato-sucrose-agar, percent disease control (GC); details: read-out: % controlled, GC; for inhibition of growth at 50 ppm: GC
Procedure: as §1, §2, §3

[3] = system: Botritis cinerea; assay: In vitro mycelial/spore growth on potato-sucrose-agar, percent disease control (BC); details: read-out: % controlled, BC
Procedure: as §1, §2, §3
10) Bo. ci.; Botritis cinerea

[4] = system: Rhizopus sp.; assay: In vitro mycelial/spore growth on potato-sucrose-agar, percent disease control (RS, second column); details: read-out: % controlled, RS; for inhibition of growth at 50 ppm: Rhizopus sp.; for inhibition of growth at 200 ppm: Rhizopus
Procedure: as §1, §2, §3
9) Rhi. sp.; Rhizopus sp.

[5] = system: Botryosphaeri; assay: In vitro mycelial/spore growth on potato-sucrose-agar, percent disease control (BD); details: read-out: % controlled, BD
Procedure: as §1, §2, §3
4) Bo. do (Ma); Botryosphaeri

[6] = system: Phytophthora capsisi; assay: In vitro mycelial/spore growth on potato-sucrose-agar, percent disease control (PC); details: read-out: % controlled, PC
Procedure: as §1, §2, §3
2) Phy. ca.; Phytophthora capsisi

[7] = system: Pyricalaria oryzae; assay: In vitro mycelial/spore growth on potato-sucrose-agar, percent disease control (PO); details: read-out: % controlled, PO
Procedure: as §1, §2, §3
6) Py. or.; Pyricalaria oryzae

[8] = system: Fusarium moniliforme; assay: In vitro mycelial/spore growth on potato-sucrose-agar, percent disease control (FM); details: Fusarium verticillioides, Fusarium moniliforme, read-out: % controlled, FM
Procedure: as §1, §2, §3
8) Fu. mo.; Fusarium moniliforme

| Compound | inhibition of growth at 50 ppm [1] [%] | inhibition of growth at 200 ppm [1] [%] | inhibition of growth at 50 ppm [2] [%] | inhibition of growth at 200 ppm [2] [%] | inhibition of growth at 50 ppm [3] [%] | inhibition of growth at 200 ppm [3] [%] | inhibition of growth at 50 ppm [4] [%] | inhibition of growth at 200 ppm [4] [%] | inhibition of growth at 50 ppm [5] [%] | inhibition of growth at 200 ppm [5] [%] | inhibition of growth at 50 ppm [6] [%] | inhibition of growth at 200 ppm [6] [%] | inhibition of growth at 50 ppm [7] [%] | inhibition of growth at 200 ppm [7] [%] | inhibition of growth at 50 ppm [8] [%] | inhibition of growth at 200 ppm [8] [%] |
| --- | --- | --- | --- | --- | --- | --- | --- | --- | --- | --- | --- | --- | --- | --- | --- | --- |
| CC(n1cncn1)[Si]1(c2ccc(-c3ccccc3)cc2)CCCC1 (stereo not drawn) [1-(4-biphenyl)-1-[α-(1H-1,2,4-triazole-1-yl)ethyl]-1-silacyclopentane] | 100 | 100 | 100 | 100 | 100 | 100 | 86 | 90 | 100 | 100 | 80 | 100 | 100 | 100 | 97 | 100 |
| Fc1ccc([Si]2(Cn3cncn3)CCCCC2)c(F)c1 [1-(2,4-difluorophenyl)-1-(1H-1,2,4-triazole-1-yl)methyl-1-silacyclohexane] | 41 | 61 | 100 | 100 | 100 | 100 | 53 | 61 | 100 | 100 | 67 | 89 | 100 | 100 | 100 | 100 |
| CC(n1cncn1)[Si]1(c2ccc(Cl)cc2)CCCCC1 (stereo not drawn) [1-(4-chlorophenyl)-1-[α-(1H-1,2,4-triazole-1-yl)ethyl]-1-silacyclohexane] | 100 | 100 | 100 | 100 | 100 | 100 | 77 | 90 | 100 | 100 | 75 | 100 | 100 | 100 | 100 | 100 |
| CC(n1cncn1)[Si]1(c2ccc(Cl)cc2Cl)CCCCC1 (stereo not drawn) [1-(2,4-dichlorophenyl)-1-[α-(1H-1,2,4-triazole-1-yl)ethyl]-1-silacyclohexane] | 100 | 100 | 100 | 100 | 100 | 100 | 54 | 60 | 100 | 100 | 64 | 100 | 100 | 100 | 100 | 100 |
| c1ccc(-c2ccc([Si]3(Cn4cncn4)CCCCC3)cc2)cc1 [1-(4-biphenyl)-1-(1H-1,2,4-triazole-1-yl)methyl-1-silacyclohexane] | 71 | 80 | 100 | 100 | 100 | 100 | 72 | 94 | 100 | 100 | 92 | 100 | 100 | 100 | 100 | 100 |
| CCOc1ccc([Si]2(Cn3cncn3)CCCCC2)cc1 [1-(4-ethoxyphenyl)-1-(1H-1,2,4-triazole-1-yl)methyl-1-silacyclohexane] | 94 | 100 | 100 | 100 | 74 | 94 | 54 | 85 | 79 | 100 | 65 | 87 | 100 | 100 | 73 | 99 |
